Experimental data: article PMC10974533, “Cationicity Enhancement on the Hydrophilic Face of Ctriporin Significantly Reduces Its Hemolytic Activity and Improves the Antimicrobial Activity against Antibiotic-Resistant ESKAPE Pathogens” (Toxins, 2024)
Where a SMILES comes first, the peptide text is derived from it.

Experiments:
Assay type in all cases: cell-based
A. baumannii ATCC19606 = assay: MIC, broth dilution, standard strain; details: broth dilution (CLSI), MHB, 37 °C, 16–20 h
Protocol: (§1) The standard strains, including S. aureus ATCC29213 and ATCC25923, E. faecalis ATCC29212, E. coli ATCC25922 and ATCC35218, A. baumannii ATCC19606, K. pneumoniae ATCC700603, and P. aeruginosa ATCC27853, were purchased from the China Center of Type Culture Collection (CCTCC). The clinical strains of the ESKAPE pathogens were isolated from the affiliated hospitals of Hubei University of Medicine. All of them were stored at −80 °C before use. The drug sensitivities of the clinical strains were determined by the Kirby–Bauer test.
(§2) The MICs were determined using the broth dilution method according to the guidelines of the Clinical and Laboratory Standards Institute (CLSI), as described in the previous studies. Briefly, the bacterial cells were incubated in Mueller–Hinton broth (MHB, Oxoid, Basingstoke, UK) at 37 °C and 150 rpm to the mid-growth phase and diluted to achieve a final concentration of 5 × 10^5 colony-forming units per milliliter (CFU/mL). Then, the cells were mixed with each peptide in different concentrations (1, 2, 4, 8, 16, 32, and 64 μg/mL). […] All experiments were repeated at least three times.

E. coli ATCC25922 = assay: MIC, broth dilution, standard strain; details: broth dilution (CLSI), MHB, 37 °C, 16–20 h
Protocol: as §1, §2

E. coli ATCC35218 = assay: MIC, broth dilution, standard strain; details: broth dilution (CLSI), MHB, 37 °C, 16–20 h
Protocol: as §1, §2

E. faecium ATCC29212 = assay: MIC, broth dilution, standard strain; details: broth dilution (CLSI), MHB, 37 °C, 16–20 h
Protocol: as §1, §2

K. pneumoniae ATCC700603 = assay: MIC, broth dilution, standard strain; details: broth dilution (CLSI), MHB, 37 °C, 16–20 h
Protocol: as §1, §2

P. aeruginosa ATCC27853 = assay: MIC, broth dilution, standard strain; details: broth dilution (CLSI), MHB, 37 °C, 16–20 h
Protocol: as §1, §2

S. aureus ATCC25923 = assay: MIC, broth dilution, standard strain; details: broth dilution (CLSI), MHB, 37 °C, 16–20 h
Protocol: as §1, §2

S. aureus ATCC29213 = assay: MIC, broth dilution, standard strain; details: broth dilution (CLSI), MHB, 37 °C, 16–20 h
Protocol: as §1, §2

[1] = tested on: human red blood cells (hRBC); assay: Hemolytic activity determination; details: 2% (v/v) hRBC, 37 °C, 1 h; for Hemolysis% at 256 μg/mL: 256 μg/mL peptide, OD540, 1% Triton X-100 = 100%, average ± standard error of three independent experiments; for curve of hemolysis% vs. peptide concentration (Figure 2): 0–512 μg/mL peptide, compared in words
Protocol: Figure 2 Hemolytic activities of Ctriporin and its analogs against human red blood cells (hRBC). Hemolytic activities of Ctriporin (solid circle), CM1 (open circle), CM2 (open square), CM3 (upward triangle), CM4 (downward triangle), CM5 (half solid circle), CM6 (half solid square), and CM7 (half solid triangle), were measured against 2% (v/v) human red blood cells. The peptide concentrations are 0, 2, 4, 8, 16, 32, 64, 128, 256, and 512 μg/mL. The cells treated with 1% Triton X-100 were treated as 100% hemolysis. All experiments were repeated three times, and the data shown are the average ± standard error.
The hemolytic activities of the peptides were determined against human red blood cells (hRBCs). As described, sodium citrate-anticoagulated hRBCs were washed three times with 0.9% sodium chloride and diluted to a final concentration of 4% (v/v). Then, an equal volume of hRBC solutions was mixed with an equal volume of each peptide in a series of concentrations (0, 2, 4, 8, 16, 32, 64, 128, 256, and 512 μg/mL). After co-incubation at 37 °C for 1 h, the degree of hemolysis of the peptides was determined by detecting the release of hemoglobin from the damaged hRBCs by measuring the optical density at 540 nm (OD540). hRBCs in 0.9% sodium chloride and 1% Triton X-100 were considered 0% and 100% hemolysis, respectively. The results shown are the average ± standard error of data derived from three independent experiments. The percent hemolysis was calculated according to the following equation [53, 54]:Hemolysis (%) = 100 × (Asample − Ablank)/(Apositive − Ablank)

standard ESKAPE strains = details: broth dilution (CLSI), MHB, 37 °C, 16–20 h; range over all standard strains
Protocol: The ESKAPE pathogens represent the main threat to public health concerning antimicrobial resistance. Therefore, we first evaluated the antimicrobial activities of Ctriporin and its analogs against the standard ESKAPE strains. The minimum inhibitory concentration (MIC) was chosen as the index for the evaluation of each peptide’s activity. […] Note that the MICs of CM4 and CM7 are 4–32 and 8–32 μg/mL, respectively, indicating the existence of significant bacterial species deviations for the antimicrobial activity of these peptides. In addition, the replacement of specific residues, especially Pro^7, may harm the antimicrobial activities of the peptide.
as §1, §2

[2] = 5 × 10^5 CFU/mL, OD630, repeated at least three times

Compound	MICs (A. baumannii ATCC19606; [2]) [µg/mL]	MICs (A. baumannii ATCC19606; value in parentheses) [µM]	MICs (E. coli ATCC25922; [2]) [µg/mL]	MICs (E. coli ATCC35218; [2]) [µg/mL]	MICs (E. coli ATCC35218; value in parentheses) [µM]	MICs (E. faecium ATCC29212; [2]) [µg/mL]	MICs (E. faecium ATCC29212; value in parentheses) [µM]	MICs (K. pneumoniae ATCC700603; [2]) [µg/mL]	MICs (K. pneumoniae ATCC700603; value in parentheses) [µM]	MICs (P. aeruginosa ATCC27853; [2]) [µg/mL]	MICs (P. aeruginosa ATCC27853; value in parentheses) [µM]	MICs (S. aureus ATCC25923; [2]) [µg/mL]	MICs (S. aureus ATCC25923; value in parentheses) [µM]	MICs (S. aureus ATCC29213; [2]) [µg/mL]	MICs (S. aureus ATCC29213; value in parentheses) [µM]	Hemolysis% at 256 μg/mL [1] [%]	MICs (E. coli ATCC25922; value in parentheses) [µM]	MICs against the ESKAPE pathogens (range over the standard strains of Table 2) (standard ESKAPE strains) [µg/mL]	curve of hemolysis% vs. peptide concentration (Figure 2) [1]
CC[C@H](C)[C@H](NC(=O)[C@H](C)NC(=O)CNC(=O)[C@@H]1CCCN1C(=O)[C@@H](NC(=O)[C@H](CC(C)C)NC(=O)[C@H](CCCCN)NC(=O)[C@H](Cc1c[nH]c2ccccc12)NC(=O)[C@H](CC(C)C)NC(=O)[C@@H](N)Cc1ccccc1)[C@@H](C)CC)C(=O)N[C@@H](CO)C(=O)N[C@@H](C)C(=O)N[C@H](C(=O)N[C@H](C(=O)N[C@@H](CO)C(=O)N[C@@H](CC(C)C)C(=O)N[C@H](C(=O)N[C@@H](CCCCN)C(=O)N[C@@H](CCCCN)C(N)=O)[C@@H](C)CC)[C@@H](C)O)C(C)C [CM1] (H-FLWKLIPGAISAVTSLIKK-NH2; N-terminus assumed)	8	3.8	8	32	15.4	16	7.7	64	30.7	> 64	> 30.7	16	7.7	8	3.8	75.6 ± 10.1	–	–	–
CC[C@H](C)[C@H](NC(=O)[C@H](C)NC(=O)[C@H](CCCCN)NC(=O)[C@@H]1CCCN1C(=O)[C@@H](NC(=O)[C@H](CC(C)C)NC(=O)[C@H](CCCCN)NC(=O)[C@H](Cc1c[nH]c2ccccc12)NC(=O)[C@H](CC(C)C)NC(=O)[C@@H](N)Cc1ccccc1)[C@@H](C)CC)C(=O)N[C@@H](CO)C(=O)N[C@@H](C)C(=O)N[C@H](C(=O)N[C@H](C(=O)N[C@@H](CO)C(=O)N[C@@H](CC(C)C)C(=O)N[C@H](C(=O)N[C@@H](CCCCN)C(=O)N[C@@H](CCCCN)C(N)=O)[C@@H](C)CC)[C@@H](C)O)C(C)C [CM2] (H-FLWKLIPKAISAVTSLIKK-NH2; N-terminus assumed)	4	1.9	4	8	3.7	4	1.9	16	7.4	16	7.4	8	3.7	4	1.9	74.3 ± 9.2	1.9	–	–
CC[C@H](C)[C@H](NC(=O)[C@H](C)NC(=O)[C@H](CCCCN)NC(=O)[C@@H]1CCCN1C(=O)[C@@H](NC(=O)[C@H](CC(C)C)NC(=O)[C@H](CCCCN)NC(=O)[C@H](Cc1c[nH]c2ccccc12)NC(=O)[C@H](CC(C)C)NC(=O)[C@@H](N)Cc1ccccc1)[C@@H](C)CC)C(=O)N[C@@H](CCCCN)C(=O)N[C@@H](C)C(=O)N[C@H](C(=O)N[C@H](C(=O)N[C@@H](CO)C(=O)N[C@@H](CC(C)C)C(=O)N[C@H](C(=O)N[C@@H](CCCCN)C(=O)N[C@@H](CCCCN)C(N)=O)[C@@H](C)CC)[C@@H](C)O)C(C)C [CM3] (H-FLWKLIPKAIKAVTSLIKK-NH2; N-terminus assumed)	4	1.8	4	4	1.8	4	1.8	8	3.6	8	3.6	4	1.8	4	1.8	89.1 ± 12.1	1.8	4 to 8	–
CC[C@H](C)[C@H](NC(=O)[C@H](C)NC(=O)[C@H](CCCCN)NC(=O)[C@@H]1CCCN1C(=O)[C@@H](NC(=O)[C@H](CC(C)C)NC(=O)[C@H](CCCCN)NC(=O)[C@H](Cc1c[nH]c2ccccc12)NC(=O)[C@H](CC(C)C)NC(=O)[C@@H](N)Cc1ccccc1)[C@@H](C)CC)C(=O)N[C@@H](CCCCN)C(=O)N[C@@H](CCCCN)C(=O)N[C@H](C(=O)N[C@H](C(=O)N[C@@H](CO)C(=O)N[C@@H](CC(C)C)C(=O)N[C@H](C(=O)N[C@@H](CCCCN)C(=O)N[C@@H](CCCCN)C(N)=O)[C@@H](C)CC)[C@@H](C)O)C(C)C [CM4] (H-FLWKLIPKAIKKVTSLIKK-NH2; N-terminus assumed)	4	1.8	8	16	7.1	16	7.1	32	14.2	16	7.1	8	3.6	4	1.8	14.0 ± 4.7	3.6	4 to 32	decreased dramatically compared with Ctriporin
CC[C@H](C)[C@H](NC(=O)[C@H](C)NC(=O)[C@H](CCCCN)NC(=O)[C@H](CCCCN)NC(=O)[C@@H](NC(=O)[C@H](CC(C)C)NC(=O)[C@H](CCCCN)NC(=O)[C@H](Cc1c[nH]c2ccccc12)NC(=O)[C@H](CC(C)C)NC(=O)[C@@H](N)Cc1ccccc1)[C@@H](C)CC)C(=O)N[C@@H](CCCCN)C(=O)N[C@@H](CCCCN)C(=O)N[C@H](C(=O)N[C@@H](CCCCN)C(=O)N[C@@H](CCCCN)C(=O)N[C@@H](CC(C)C)C(=O)N[C@H](C(=O)N[C@@H](CCCCN)C(=O)N[C@@H](CCCCN)C(N)=O)[C@@H](C)CC)C(C)C [CM7] (H-FLWKLIKKAIKKVKKLIKK-NH2; N-terminus assumed)	8	3.4	32	16	–	32	13.6	32	–	8	3.4	32	13.6	32	13.6	57.5 ± 9.8	13.6	8 to 32	positions closely to those of CM3
